Literature values as cited in patent publication US5668151A, “Dihydropyridine NPY antagonists: piperidine derivatives” (Bristol-Myers Squibb Company, priority 1996, dated 1997).

How the values were obtained:
[1] = test system: rat femoral artery
[2] = test system: NPY-induced Ca++ entry in HEL cells

Row | SMILES | effect on the vasoconstrictive activity of the NPY1 agonist [Leu31, Pro34]NPY [1] | effect on the NPY2 agonist NPY13-36 ([1]; Y2 receptor functional selectivity) | pA2 [2]
1 | N=C(N)N(CCCCCCNCc1ccc2ccccc2c1)CCCCCCN(CCCCCCNCc1ccc2ccccc2c1)C(=N)N [Example 6b] | no effect | antagonized | 
2 | N=C(NCCCc1cnc[nH]1)NCCC(c1cc(F)cc(F)c1)c1ccccn1 (stereo not drawn) [He 90481] |  |  | 4.43
